pEC50, pIC50: −log10 of the molar value. One block for each compound: values may come before it. The source made the active and inactive calls. No cut-off for these calls is given here.
Experiments:
[1] = target: T1, Serine/threonine-protein kinase 3 (Homo sapiens, UniProt Q13188)
T1 sequence (Q13188 whole entry): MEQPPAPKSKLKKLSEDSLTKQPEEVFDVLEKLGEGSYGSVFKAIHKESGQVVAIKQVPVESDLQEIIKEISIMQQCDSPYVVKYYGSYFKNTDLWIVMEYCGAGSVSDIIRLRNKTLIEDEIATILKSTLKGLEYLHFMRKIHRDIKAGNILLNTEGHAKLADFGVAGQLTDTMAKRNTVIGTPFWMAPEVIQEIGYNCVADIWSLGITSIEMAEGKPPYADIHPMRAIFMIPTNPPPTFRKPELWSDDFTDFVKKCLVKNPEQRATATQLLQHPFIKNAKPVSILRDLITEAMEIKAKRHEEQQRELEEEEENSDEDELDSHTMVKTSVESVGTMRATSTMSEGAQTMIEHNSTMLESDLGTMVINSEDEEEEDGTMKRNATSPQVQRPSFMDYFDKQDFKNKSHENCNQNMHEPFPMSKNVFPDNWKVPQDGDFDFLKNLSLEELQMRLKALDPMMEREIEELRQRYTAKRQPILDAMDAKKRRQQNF

[2] = target: T2, Serine/threonine-protein kinase 4 (Homo sapiens, UniProt Q13043)
T2 sequence (Q13043 whole entry): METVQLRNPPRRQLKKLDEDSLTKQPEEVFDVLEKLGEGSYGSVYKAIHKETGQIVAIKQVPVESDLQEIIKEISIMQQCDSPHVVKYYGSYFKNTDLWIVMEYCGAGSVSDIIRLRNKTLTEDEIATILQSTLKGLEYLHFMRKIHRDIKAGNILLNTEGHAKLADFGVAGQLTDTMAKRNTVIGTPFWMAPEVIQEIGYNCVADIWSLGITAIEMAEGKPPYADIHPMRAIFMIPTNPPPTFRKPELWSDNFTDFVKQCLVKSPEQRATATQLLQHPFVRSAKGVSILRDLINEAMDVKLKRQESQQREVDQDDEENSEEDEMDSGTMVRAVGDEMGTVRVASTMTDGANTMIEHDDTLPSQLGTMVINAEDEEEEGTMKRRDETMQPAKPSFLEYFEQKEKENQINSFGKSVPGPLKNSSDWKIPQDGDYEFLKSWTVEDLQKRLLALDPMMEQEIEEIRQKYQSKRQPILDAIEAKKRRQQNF

[3] = target: T2, Serine/threonine-protein kinase 4; test: Inhibition of MST1 (unknown origin) expressed in HEK293T cells using NanoGlo as substrate incubated for 20 hrs by NanoBRET assay; type: cell-based
[4] = target: Serine/threonine-protein kinase SIK2 (Homo sapiens, UniProt Q9H0K1); test: Inhibition of SIK2 (unknown origin) expressed in HEK293T cells using NanoGlo as substrate incubated for 20 hrs by NanoBRET assay; type: cell-based
[5] = target: T3, Serine/threonine-protein kinase 26 (Homo sapiens, UniProt Q9P289); test: Inhibition of MST4 (unknown origin) expressed in HEK293T cells using NanoGlo as substrate incubated for 20 hrs by NanoBRET assay; type: cell-based
Target sequence in this assay (Q9P289 whole entry): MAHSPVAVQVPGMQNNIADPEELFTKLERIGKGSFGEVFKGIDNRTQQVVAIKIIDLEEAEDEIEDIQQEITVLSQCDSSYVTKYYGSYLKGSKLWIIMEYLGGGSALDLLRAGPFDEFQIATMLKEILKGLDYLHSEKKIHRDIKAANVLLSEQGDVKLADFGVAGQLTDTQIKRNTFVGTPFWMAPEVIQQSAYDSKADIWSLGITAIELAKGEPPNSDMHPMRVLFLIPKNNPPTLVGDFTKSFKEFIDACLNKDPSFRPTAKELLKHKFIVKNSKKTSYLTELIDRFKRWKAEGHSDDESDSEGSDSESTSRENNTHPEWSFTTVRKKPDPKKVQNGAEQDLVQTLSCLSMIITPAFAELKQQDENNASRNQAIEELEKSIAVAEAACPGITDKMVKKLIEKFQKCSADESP

[6] = target: T4, Serine/threonine-protein kinase 24 (Homo sapiens, UniProt Q9Y6E0); test: Binding affinity to recombinant MST3 (unknown origin) assessed as change in melting temperature by DSF analysis
Target sequence in this assay (Q9Y6E0 whole entry, looked up): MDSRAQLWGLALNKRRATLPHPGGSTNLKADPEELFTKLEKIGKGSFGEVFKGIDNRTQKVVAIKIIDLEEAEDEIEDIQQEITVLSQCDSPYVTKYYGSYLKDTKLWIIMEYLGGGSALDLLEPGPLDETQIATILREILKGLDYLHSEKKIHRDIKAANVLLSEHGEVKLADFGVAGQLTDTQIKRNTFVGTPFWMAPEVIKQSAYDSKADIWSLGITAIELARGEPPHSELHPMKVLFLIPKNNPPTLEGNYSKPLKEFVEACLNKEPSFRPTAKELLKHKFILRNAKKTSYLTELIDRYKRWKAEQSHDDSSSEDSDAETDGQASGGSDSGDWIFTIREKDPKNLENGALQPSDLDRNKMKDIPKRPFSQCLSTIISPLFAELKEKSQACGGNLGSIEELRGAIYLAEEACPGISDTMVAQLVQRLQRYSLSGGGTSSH

[7] = tested on: HCT-116; test: Antiproliferative activity against human HCT-116 cells assessed as reduction in cell viability at 10 uM incubated for 6 to 72 hrs by Hoechst33342 staining based analysis; type: functional; conditions: time 6-72 hrs
[8] = target: Serine/threonine-protein kinase PAK 1 (Homo sapiens) (UniProt Q13153); test: Binding affinity to recombinant PAK1 (unknown origin) assessed as change in melting temperature by DSF analysis
[9] = target: T4, Serine/threonine-protein kinase 24; test: Inhibition of MST3 (unknown origin) expressed in intact HEK293T cells using NanoGlo as substrate incubated for 20 hrs by NanoBRET assay; type: cell-based
Target sequence in this assay (Q9Y6E0 whole entry): as the sequence (Q9Y6E0 whole entry, looked up) above

[10] = target: T1, Serine/threonine-protein kinase 3; test: Inhibition of MST2 (unknown origin) expressed in HEK293T cells using NanoGlo as substrate incubated for 20 hrs by NanoBRET assay; type: cell-based
[11] = tested on: HCT-116; test: Antiproliferative activity against human HCT-116 cells assessed as reduction in cell viability at 10 uM incubated for 48 hrs by Hoechst33342 staining based analysis; type: functional
[12] = tested on: HCT-116; test: Induction of apoptosis in human HCT-116 cells assessed as effect on cell count at 1 uM incubated for 72 hrs by Hoechst33342 staining based analysis; type: functional
[13] = target: T5, Serine/threonine-protein kinase 4 (Homo sapiens) (UniProt Q13043); test: Binding affinity to recombinant MST1 (unknown origin) assessed as change in melting temperature by DSF analysis
T5 sequence (whole entry): T2 sequence (Q13043 whole entry)

[14] = tested on: HCT-116; test: Antiproliferative activity against human HCT-116 cells assessed as reduction in cell viability at 1 to 10 uM incubated for 24 hrs by Hoechst33342 staining based analysis; type: functional; conditions: dose 1-10 µM
[15] = target: Casein kinase I isoform epsilon (Homo sapiens, UniProt P49674); test: Inhibition of CK1e (unknown origin) expressed in HEK293T cells using NanoGlo as substrate incubated for 20 hrs by NanoBRET assay; type: cell-based
[16] = tested on: HCT-116; test: Induction of cell cycle arrest in human HCT-116 cells assessed as accumulation of cells at G1 phase at 10 uM incubated for 72 hrs by FUCCI based analysis; type: functional
[17] = target: T6, Serine/threonine-protein kinase Nek2 (Homo sapiens, UniProt P51955); test: Inhibition of NEK2 (unknown origin) expressed in HEK293T cells using NanoGlo as substrate incubated for 20 hrs by NanoBRET assay; type: cell-based
T6 sequence (P51955 whole entry): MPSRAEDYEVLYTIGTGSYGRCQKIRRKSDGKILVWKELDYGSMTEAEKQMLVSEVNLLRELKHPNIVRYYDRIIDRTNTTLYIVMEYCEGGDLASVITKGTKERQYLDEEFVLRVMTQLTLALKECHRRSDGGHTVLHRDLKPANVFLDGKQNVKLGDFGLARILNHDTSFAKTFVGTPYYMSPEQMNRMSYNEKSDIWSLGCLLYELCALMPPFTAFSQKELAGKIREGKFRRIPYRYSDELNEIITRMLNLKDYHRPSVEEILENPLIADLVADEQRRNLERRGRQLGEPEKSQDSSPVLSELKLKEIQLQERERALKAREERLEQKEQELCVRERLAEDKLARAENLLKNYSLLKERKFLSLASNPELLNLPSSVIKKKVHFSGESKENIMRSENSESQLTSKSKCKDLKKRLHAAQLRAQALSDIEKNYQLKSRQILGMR

[18] = target: T3, Serine/threonine-protein kinase 26; test: Binding affinity to recombinant MST4 (unknown origin) assessed as change in melting temperature by DSF analysis
Target sequence in this assay (Q9P289 2-416 limits assumed): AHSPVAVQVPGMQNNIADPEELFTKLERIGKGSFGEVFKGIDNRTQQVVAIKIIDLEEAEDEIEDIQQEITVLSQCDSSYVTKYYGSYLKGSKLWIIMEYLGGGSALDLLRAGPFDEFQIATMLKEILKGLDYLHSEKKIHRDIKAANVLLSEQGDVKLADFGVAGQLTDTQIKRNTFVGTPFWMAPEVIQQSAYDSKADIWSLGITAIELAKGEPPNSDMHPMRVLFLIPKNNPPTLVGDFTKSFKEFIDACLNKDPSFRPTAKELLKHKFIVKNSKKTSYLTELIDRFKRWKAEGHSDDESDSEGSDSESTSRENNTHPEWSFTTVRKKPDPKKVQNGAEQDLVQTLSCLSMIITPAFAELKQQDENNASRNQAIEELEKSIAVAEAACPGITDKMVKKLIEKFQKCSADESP

[19] = target: T4, Serine/threonine-protein kinase 24; test: Inhibition of MST3 (unknown origin) expressed in lysed HEK293T cells using NanoGlo as substrate incubated for 20 hrs by NanoBRET assay; type: cell-based
Target sequence in this assay (Q9Y6E0 whole entry): as the sequence (Q9Y6E0 whole entry, looked up) above

[20] = Microsomal stability in Sprague-Dawley rat liver microsome incubated for 1 hr by HPLC analysis; type: ADME; conditions: liver microsomes, read-out: Stability
[21] = target: Tyrosine-protein kinase Fes/Fps (Homo sapiens, UniProt P07332); test: Inhibition of FES (unknown origin) expressed in HEK293T cells using NanoGlo as substrate incubated for 20 hrs by NanoBRET assay; type: cell-based
[22] = target: T7, Serine/threonine-protein kinase 3 (Homo sapiens) (UniProt Q13188); test: Binding affinity to recombinant MST2 (unknown origin) assessed as change in melting temperature by DSF analysis
T7 sequence (whole entry): T1 sequence (Q13188 whole entry)

Sequence of Serine/threonine-protein kinase PAK 1 (Homo sapiens) (Q13153 whole entry): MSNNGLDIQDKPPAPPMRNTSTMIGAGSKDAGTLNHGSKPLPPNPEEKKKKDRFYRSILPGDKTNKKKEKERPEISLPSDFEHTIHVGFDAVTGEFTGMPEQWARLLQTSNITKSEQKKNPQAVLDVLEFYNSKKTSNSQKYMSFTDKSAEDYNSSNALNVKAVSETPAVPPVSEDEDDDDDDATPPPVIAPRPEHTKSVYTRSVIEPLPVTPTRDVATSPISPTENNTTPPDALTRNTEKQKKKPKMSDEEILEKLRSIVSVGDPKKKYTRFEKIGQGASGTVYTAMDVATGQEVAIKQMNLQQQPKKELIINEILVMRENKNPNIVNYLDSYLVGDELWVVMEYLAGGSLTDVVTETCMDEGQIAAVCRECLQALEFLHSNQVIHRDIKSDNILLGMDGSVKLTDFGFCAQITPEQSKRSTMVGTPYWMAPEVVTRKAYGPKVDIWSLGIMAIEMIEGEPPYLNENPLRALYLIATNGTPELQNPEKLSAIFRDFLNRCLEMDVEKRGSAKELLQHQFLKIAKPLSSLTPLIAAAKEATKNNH
Sequence of Tyrosine-protein kinase Fes/Fps (P07332 whole entry): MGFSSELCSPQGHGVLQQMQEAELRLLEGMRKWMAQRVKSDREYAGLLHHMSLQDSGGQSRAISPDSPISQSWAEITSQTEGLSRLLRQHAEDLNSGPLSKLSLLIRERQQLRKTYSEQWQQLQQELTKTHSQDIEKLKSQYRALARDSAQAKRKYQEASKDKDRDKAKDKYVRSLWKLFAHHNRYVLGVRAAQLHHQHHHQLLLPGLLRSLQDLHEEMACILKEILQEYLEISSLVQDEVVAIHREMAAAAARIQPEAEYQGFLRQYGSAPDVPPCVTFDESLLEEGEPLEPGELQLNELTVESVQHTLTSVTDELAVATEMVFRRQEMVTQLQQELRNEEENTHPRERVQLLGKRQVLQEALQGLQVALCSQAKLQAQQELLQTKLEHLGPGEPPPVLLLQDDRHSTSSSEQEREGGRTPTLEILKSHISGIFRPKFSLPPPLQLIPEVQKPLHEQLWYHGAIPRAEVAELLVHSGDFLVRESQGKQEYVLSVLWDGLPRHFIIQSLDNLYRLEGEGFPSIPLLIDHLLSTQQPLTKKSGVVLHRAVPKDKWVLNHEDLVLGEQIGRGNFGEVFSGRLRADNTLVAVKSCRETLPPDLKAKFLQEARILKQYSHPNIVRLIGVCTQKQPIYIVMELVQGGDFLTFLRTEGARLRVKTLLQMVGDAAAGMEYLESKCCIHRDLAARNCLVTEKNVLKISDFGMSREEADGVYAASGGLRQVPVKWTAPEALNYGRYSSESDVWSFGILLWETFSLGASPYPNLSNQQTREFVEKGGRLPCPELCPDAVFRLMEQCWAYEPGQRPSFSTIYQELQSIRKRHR
Sequence of Serine/threonine-protein kinase SIK2 (Q9H0K1 whole entry): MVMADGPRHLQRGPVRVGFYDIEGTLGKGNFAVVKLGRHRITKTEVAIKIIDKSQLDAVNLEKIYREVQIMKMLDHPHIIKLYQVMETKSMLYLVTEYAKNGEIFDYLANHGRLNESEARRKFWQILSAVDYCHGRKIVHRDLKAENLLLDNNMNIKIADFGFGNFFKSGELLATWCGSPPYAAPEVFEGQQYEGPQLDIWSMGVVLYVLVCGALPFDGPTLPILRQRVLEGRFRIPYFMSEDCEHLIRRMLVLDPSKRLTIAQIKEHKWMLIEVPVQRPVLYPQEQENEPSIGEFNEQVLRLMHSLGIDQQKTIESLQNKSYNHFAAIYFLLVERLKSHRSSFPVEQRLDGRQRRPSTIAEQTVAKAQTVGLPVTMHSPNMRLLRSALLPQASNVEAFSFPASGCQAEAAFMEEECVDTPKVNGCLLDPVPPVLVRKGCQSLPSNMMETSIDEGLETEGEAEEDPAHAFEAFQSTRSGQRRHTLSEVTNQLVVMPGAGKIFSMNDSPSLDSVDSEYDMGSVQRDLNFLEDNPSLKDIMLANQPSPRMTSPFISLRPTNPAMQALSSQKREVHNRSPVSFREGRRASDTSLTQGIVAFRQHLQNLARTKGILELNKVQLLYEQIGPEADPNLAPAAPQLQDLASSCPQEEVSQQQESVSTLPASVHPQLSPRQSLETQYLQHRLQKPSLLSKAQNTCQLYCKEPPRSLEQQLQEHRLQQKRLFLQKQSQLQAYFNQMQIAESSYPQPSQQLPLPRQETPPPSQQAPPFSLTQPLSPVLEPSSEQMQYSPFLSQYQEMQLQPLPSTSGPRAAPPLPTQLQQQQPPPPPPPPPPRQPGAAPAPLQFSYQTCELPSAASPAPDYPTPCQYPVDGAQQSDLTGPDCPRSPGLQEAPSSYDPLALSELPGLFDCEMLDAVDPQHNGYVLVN
Sequence of Casein kinase I isoform epsilon (P49674 whole entry, canonical isoform): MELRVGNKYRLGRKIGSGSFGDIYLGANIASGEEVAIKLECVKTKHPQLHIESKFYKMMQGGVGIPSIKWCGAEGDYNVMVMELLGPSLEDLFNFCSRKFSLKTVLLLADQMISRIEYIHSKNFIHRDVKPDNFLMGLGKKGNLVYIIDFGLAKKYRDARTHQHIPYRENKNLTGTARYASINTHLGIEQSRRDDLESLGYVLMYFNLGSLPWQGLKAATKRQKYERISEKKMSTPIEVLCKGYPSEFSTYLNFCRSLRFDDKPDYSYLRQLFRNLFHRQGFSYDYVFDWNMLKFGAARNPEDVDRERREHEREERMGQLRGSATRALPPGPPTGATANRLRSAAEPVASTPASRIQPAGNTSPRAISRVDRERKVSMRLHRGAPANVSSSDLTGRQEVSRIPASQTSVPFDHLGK

pIC50 [1]: 6.31
pIC50 [2]: 6.79
SMILES: CN1C(=O)c2sccc2N(C)c2nc(Nc3ccc(S(N)(=O)=O)cc3)ncc21

pEC50 [3]: < 4.30
pEC50 [4]: 5.13
pEC50 [5]: 6.23
ΔTm [6]: 10.6 °C
ΔTm [8]: 5.1 °C
pEC50 [9]: 7.24
pEC50 [10]: < 4.30
ΔTm [13]: 2.1 °C
pEC50 [15]: 4.75
pEC50 [17]: < 5.30
ΔTm [18]: 8.1 °C
pEC50 [19]: 7.09
remaining at 1 h [20]: 90%
pEC50 [21]: < 4.30
ΔTm [22]: 4.6 °C
SMILES: Cc1cccc(-c2ccc(-c3cc4cnc(NC(CO)CO)nc4n(CCCCN)c3=O)c(Cl)c2)n1
Activity [7]: inactive
Activity [11]: 30%
Activity [12]: Active
Activity [14]: >90%
Activity [16]: Active
